Assay: recombinant UMI read abundance after kanamycin selection (control-corrected) (log10(CPM+1)); higher = more efficient recombination; extreme values may be limits of the assay; sequences stand for … in AGTGCAGAGAAAATCGGCCAGTTTTCTCTGCCTGCAGTCCGCATGCCGTGGGACCCCTTGGGTTCTAACCTGTTGCCTAGATTTATGCAGCGGACTGCCTTTCTCCCAAAGTGATAAACCGG…AGGTTGGTTTCACT; site = the 11-nt donor
Outline: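 Under IPTG (0.07 mM) plus kanamycin, or without selection, Escherichia coli carrying a UMI-tagged donor and donor-binding-loop pair library and a target plasmid for the IS621 bridge recombinase were plated in two replicates. Recombinant UMIs were PCR-amplified across the donor–target junction and sequenced. Counts were converted to CPM, averaged over replicates, scaled by control-derived factors and reported as log10(CPM+1).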
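Further: IS621 bridge recombinase in Escherichia coli cells against a fixed T5 target plasmid.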

| Sequence | recombinant UMI read abundance (log10) |
| --- | --- |
| CTACTAACATGGACCGGTTTTCCCGGTAATCCGTATTTGGA (site TTACTAACTTC) | 0.417 |
| CTACTAGCATGGACCGGTTTTCCCGGTAATCCGTATTTGAC (site CTACTAGCTGT) | 2.64 |
| CTACTAGCATGGACCGGTTTTCCCGGTAATCCGTATTTGAC (site CTAGTATCTGT) | 0 |
| CTACTATCATGGACCGGTTTTCCCGGTAATCCGTATTTGAA (site CTACTATCTTT) | 2.45 |
| CTACTATCATGGACCGGTTTTCCCGGTAATCCGTATTTGAA (site CTAGTATCTGT) | 0 |
| CTACTCACATGGACCGGTTTTCCCGGTAATCCGTATTTGGA (site CTACTAACTTC) | 0.63 |
| CTACTCACATGGACCGGTTTTCCCGGTAATCCGTATTTGGA (site CTACTCACTTC) | 2.16 |
| CTACTCACATGGACCGGTTTTCCCGGTAATCCGTATTTGGA (site CTACTGACTTC) | 0.0219 |
| CTACTCACATGGACCGGTTTTCCCGGTAATCCGTATTTGGA (site CTACTTACTTC) | 0.361 |
| CTAGAAACATGGACCGGTTTTCCCGGTAATCCGTATTTGAC (site CTAGAAACTGT) | 2.76 |
| CTAGAAACATGGACCGGTTTTCCCGGTAATCCGTATTTGAC (site CTAGTATCTGT) | 0.00659 |
| CTAGAAACATGGACCGGTTTTCCCGGTAATCCGTATTTGCA (site CTAGAAACTTG) | 2.59 |
| CTAGAAACATGGACCGGTTTTCCCGGTAATCCGTATTTGCA (site CTCGAAACTTG) | 0 |
| CTAGAAACATGGACCGGTTTTCCCGGTAATCCGTATTTGCA (site CTGGAAACTTG) | 1.83 |
| CTAGAAACATGGACCGGTTTTCCCGGTAATCCGTATTTGCA (site CTTGAAACTTG) | 0.422 |
| CTAGAATCATGGACCGGTTTTCCCGGTAATCCGTATTTGAG (site CTAGAATCTCT) | 3.11 |
| CTAGAATCATGGACCGGTTTTCCCGGTAATCCGTATTTGAG (site CTAGTATCTGT) | 0 |
| CTAGACCCATGGACCGGTTTTCCCGGTAATCCGTATTTGGA (site CTAGACCCTTC) | 0.351 |
| CTAGATTCATGGACCGGTTTTCCCGGTAATCCGTATTTGGA (site CTAGATTCTTC) | 2.84 |
| CTAGCATCATGGACCGGTTTTCCCGGTAATCCGTATTTGCC (site CTAGCATCTGG) | 2.4 |
| CTAGCATCATGGACCGGTTTTCCCGGTAATCCGTATTTGCC (site CTAGTATCTGT) | 0 |
| CTAGCCACATGGACCGGTTTTCCCGGTAATCCGTATTTGGA (site GACCAATCTAA) | 0 |
| CTAGCTGCATGGACCGGTTTTCCCGGTAATCCGTATTTGTG (site ATAGCTGCTCA) | 0.0231 |
| CTAGCTGCATGGACCGGTTTTCCCGGTAATCCGTATTTGTG (site CTAGCTGCTCA) | 1.75 |
| CTAGCTGCATGGACCGGTTTTCCCGGTAATCCGTATTTGTG (site GTAGCTGCTCA) | 0.0102 |

| Sequence | recombinant UMI read abundance (log10) |
| --- | --- |
| CTAGCTGCATGGACCGGTTTTCCCGGTAATCCGTATTTGTG (site TTAGCTGCTCA) | 0.0211 |
| CTAGCTTCATGGACCGGTTTTCCCGGTAATCCGTATTTGTG (site CTAGCTTCTCA) | 2.19 |
| CTAGGTGCATGGACCGGTTTTCCCGGTAATCCGTATTTGAT (site CAAGGTGCTAT) | 1.59 |
| CTAGGTGCATGGACCGGTTTTCCCGGTAATCCGTATTTGAT (site CCAGGTGCTAT) | 1.39 |
| CTAGGTGCATGGACCGGTTTTCCCGGTAATCCGTATTTGAT (site CGAGGTGCTAT) | 0.0806 |
| CTAGGTGCATGGACCGGTTTTCCCGGTAATCCGTATTTGAT (site CTAGGTGCTAT) | 2.14 |
| CTAGTAACATGGACCGGTTTTCCCGGTAATCCGTATTTGAC (site CTAGTAACTGT) | 3.1 |
| CTAGTAACATGGACCGGTTTTCCCGGTAATCCGTATTTGAC (site CTAGTACCTGT) | 0 |
| CTAGTAACATGGACCGGTTTTCCCGGTAATCCGTATTTGAC (site CTAGTAGCTGT) | 2.73 |
| CTAGTAACATGGACCGGTTTTCCCGGTAATCCGTATTTGAC (site CTAGTATCTGT) | 1.83 |
| CTAGTCACATGGACCGGTTTTCCCGGTAATCCGTATTTGAC (site CTAGTATCTGT) | 0 |
| CTAGTCACATGGACCGGTTTTCCCGGTAATCCGTATTTGAC (site CTAGTCACTGT) | 2.59 |
| CTAGTTTCATGGACCGGTTTTCCCGGTAATCCGTATTTGAA (site CTAGTATCTGT) | 0 |
| CTAGTTTCATGGACCGGTTTTCCCGGTAATCCGTATTTGAA (site CTAGTTTCTTT) | 1.85 |
| CTAGTTTCATGGACCGGTTTTCCCGGTAATCCGTATTTGCC (site CTAGTATCTGT) | 0 |
| CTAGTTTCATGGACCGGTTTTCCCGGTAATCCGTATTTGCC (site CTAGTTTCTGG) | 2.53 |
| CTATAATCATGGACCGGTTTTCCCGGTAATCCGTATTTGCT (site CGATCATCTAG) | 0 |
| CTATAATCATGGACCGGTTTTCCCGGTAATCCGTATTTGCT (site CTATAATCTAG) | 3.13 |
| CTATATCCATGGACCGGTTTTCCCGGTAATCCGTATTTGAG (site CTATATCCTCT) | 1.41 |
| CTATCCTCATGGACCGGTTTTCCCGGTAATCCGTATTTGCT (site CGATCATCTAG) | 0 |
| CTATCCTCATGGACCGGTTTTCCCGGTAATCCGTATTTGCT (site CTATCCTCTAG) | 3.09 |
| CTATCCTCATGGACCGGTTTTCCCGGTAATCCGTATTTGTT (site CTATCCTCTAA) | 2.79 |
| CTATTAACATGGACCGGTTTTCCCGGTAATCCGTATTTGGA (site CTAATAACTTC) | 0.484 |
| CTATTAACATGGACCGGTTTTCCCGGTAATCCGTATTTGGA (site CTACTAACTTC) | 0.342 |
| CTATTAACATGGACCGGTTTTCCCGGTAATCCGTATTTGGA (site CTAGTAACTTC) | 0.397 |

| Sequence | recombinant UMI read abundance (log10) |
| --- | --- |
| CTATTAACATGGACCGGTTTTCCCGGTAATCCGTATTTGGA (site CTATTAACTTC) | 1.64 |
| CTATTGGCATGGACCGGTTTTCCCGGTAATCCGTATTTGTA (site CTATTGGCTTA) | 1.84 |
| CTATTGTCATGGACCGGTTTTCCCGGTAATCCGTATTTGAC (site CTAGTATCTGT) | 0 |
| CTATTGTCATGGACCGGTTTTCCCGGTAATCCGTATTTGAC (site CTATTGTCTGT) | 0 |
| CTCAAAGCATGGACCGGTTTTCCCGGTAATCCGTATTTGCG (site CTCAAAGCTCG) | 0.762 |
| CTCAGCCCATGGACCGGTTTTCCCGGTAATCCGTATTTGCC (site CTCAGCCCTGG) | 0 |
| CTCAGCTCATGGACCGGTTTTCCCGGTAATCCGTATTTGAA (site CTCAGCTCTTT) | 2.08 |
| CTCATTCCATGGACCGGTTTTCCCGGTAATCCGTATTTGCT (site CTCATTCCTAG) | 0.523 |
| CTCCAAACATGGACCGGTTTTCCCGGTAATCCGTATTTGGC (site CTCCAAACTGC) | 0 |
| CTCCAACCATGGACCGGTTTTCCCGGTAATCCGTATTTGCC (site CTCCAACCTGG) | 0 |
| CTCCATGCATGGACCGGTTTTCCCGGTAATCCGTATTTGTC (site CTCCATGCTGA) | 2.3 |
| CTCCCGACATGGACCGGTTTTCCCGGTAATCCGTATTTGAG (site CTCCCAACTCT) | 0.849 |
| CTCCCGACATGGACCGGTTTTCCCGGTAATCCGTATTTGAG (site CTCCCCACTCT) | 0.00318 |
| CTCCCGACATGGACCGGTTTTCCCGGTAATCCGTATTTGAG (site CTCCCGACTCT) | 0.968 |
| CTCCCGACATGGACCGGTTTTCCCGGTAATCCGTATTTGAG (site CTCCCTACTCT) | 0.0167 |
| CTCCCTACATGGACCGGTTTTCCCGGTAATCCGTATTTGAT (site CTCCCTACTAT) | 1.01 |
| CTCCCTACATGGACCGGTTTTCCCGGTAATCCGTATTTGAT (site CTCCCTACTCT) | 0.00726 |
| CTCCCTACATGGACCGGTTTTCCCGGTAATCCGTATTTGAT (site CTCCCTACTGT) | 0.137 |
| CTCCCTACATGGACCGGTTTTCCCGGTAATCCGTATTTGAT (site CTCCCTACTTT) | 0.0164 |
| CTCCCTACATGGACCGGTTTTCCCGGTAATCCGTATTTGGG (site CTCCCTACTCA) | 0.037 |
| CTCCCTACATGGACCGGTTTTCCCGGTAATCCGTATTTGGG (site CTCCCTACTCC) | 0.0177 |
| CTCCCTACATGGACCGGTTTTCCCGGTAATCCGTATTTGGG (site CTCCCTACTCG) | 0.00544 |
| CTCCCTACATGGACCGGTTTTCCCGGTAATCCGTATTTGGG (site CTCCCTACTCT) | 0.0127 |
| CTCCCTGCATGGACCGGTTTTCCCGGTAATCCGTATTTGGC (site CTCCCTGCTGC) | 0 |
| CTCCGACCATGGACCGGTTTTCCCGGTAATCCGTATTTGAC (site CTCCGACCTGT) | 0 |

From the supplement of paper PMC11208160
